{
  "source": "BindingDB's records for doi:10.7270/Q2BK19S0",
  "about": "(The Scripps Research Institute Molecular Screening Center, 2010)",
  "target": "Photoreceptor-specific nuclear receptor (Homo sapiens, UniProt Q9Y5X4)",
  "sequence (Q9Y5X4 whole entry)": "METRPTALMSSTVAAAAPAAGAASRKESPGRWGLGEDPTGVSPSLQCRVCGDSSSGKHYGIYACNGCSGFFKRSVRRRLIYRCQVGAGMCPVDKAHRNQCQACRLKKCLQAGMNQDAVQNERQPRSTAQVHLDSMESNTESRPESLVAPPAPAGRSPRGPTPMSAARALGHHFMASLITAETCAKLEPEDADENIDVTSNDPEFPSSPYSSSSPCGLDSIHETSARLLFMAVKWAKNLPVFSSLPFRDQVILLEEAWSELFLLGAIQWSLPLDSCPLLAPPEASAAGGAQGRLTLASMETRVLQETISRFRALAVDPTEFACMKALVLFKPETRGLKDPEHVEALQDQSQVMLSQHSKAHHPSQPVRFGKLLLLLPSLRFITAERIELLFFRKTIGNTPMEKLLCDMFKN",
  "assay": "ligands suppressing NR2E3 nuclear receptor activity – biochemical, TR-FRET, dose response (AID 463256)",
  "data": [
    {"molecule": "COc1ccc(-n2cc(O)c(-c3nc(-c4ccccc4)cs3)c2N)cc1", "note": "[5-amino-1-(4-methoxyphenyl)-4-(4-phenyl-1,3-thiazol-2-yl)-2H-pyrrol-3-one]", "values": [
      {"measurement": "IC50", "result": 13.4, "unit": "µM"}
    ]}
  ]
}
